Laboratory results reported in PubChem BioAssay AID2060612 (Molecular Pharmacology Branch, DTP, NCI, 2025).

Tested on: 565232-114-T-J1-PDC complex spheroid viability
Assay: Anticancer human tumor 565232-114-T-J1-PDC patient-derived bladder carcinoma cell line growth inhibition [CLK]
Details: for IC50: curve of first compound; for viability, T/C: stronger effect = lower value
Summary of the method: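 Patient-derived tumor cells grown as complex spheroids with HUVEC endothelial cells and mesenchymal stem cells, treated with drug combinations. Concentrations descend in half-log steps from near clinical Cmax, or from 10 microM if Cmax unknown.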

[1] = second compound 0.0316 µM, first compound 0.0316 µM
[2] = second compound 0.0316 µM, first compound 0.1 µM
[3] = second compound 0.0316 µM, first compound 0.316 µM
[4] = second compound 0.0316 µM, first compound 1 µM
[5] = second compound 0.1 µM, first compound 0.0316 µM
[6] = second compound 0.1 µM, first compound 0.1 µM
[7] = second compound 0.1 µM, first compound 0.316 µM
[8] = second compound 0.1 µM, first compound 1 µM
[9] = second compound 0.316 µM, first compound 0.0316 µM
[10] = second compound 0.316 µM, first compound 0.1 µM
[11] = second compound 0.316 µM, first compound 0.316 µM
[12] = second compound 0.316 µM, first compound 1 µM
[13] = second compound 1 µM, first compound 0.0316 µM
[14] = second compound 1 µM, first compound 0.1 µM
[15] = second compound 1 µM, first compound 0.316 µM
[16] = second compound 1 µM, first compound 1 µM
[17] = second compound 3.16 µM, first compound 0.0316 µM
[18] = second compound 3.16 µM, first compound 0.1 µM
[19] = second compound 3.16 µM, first compound 0.316 µM
[20] = second compound 3.16 µM, first compound 1 µM
[21] = second compound 10 µM, first compound 0.0316 µM
[22] = second compound 10 µM, first compound 0.1 µM
[23] = second compound 10 µM, first compound 0.316 µM
[24] = second compound 10 µM, first compound 1 µM
[25] = second compound 0.0316 µM, first compound 3.16 µM
[26] = second compound 0.0316 µM, first compound 10 µM
[27] = second compound 0.1 µM, first compound 3.16 µM
[28] = second compound 0.1 µM, first compound 10 µM
[29] = second compound 0.316 µM, first compound 3.16 µM
[30] = second compound 0.316 µM, first compound 10 µM
[31] = second compound 1 µM, first compound 3.16 µM
[32] = second compound 1 µM, first compound 10 µM
[33] = second compound 3.16 µM, first compound 3.16 µM
[34] = second compound 3.16 µM, first compound 10 µM
[35] = second compound 10 µM, first compound 3.16 µM
[36] = second compound 10 µM, first compound 10 µM
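Also: spheroids exposed to compounds for 7 days before readout.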
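For viability, T/C in this document: 100% = DMSO vehicle wells with luminescence normalized to vehicle control.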

CCc1c2c(nc3ccc(O)cc13)-c1cc3c(c(=O)n1C2)COC(=O)[C@]3(O)CC + CNC(=O)c1ccc(Nc2nc(OC3CCCC3)c3c(-c4ccc5nc(C)oc5c4)c[nH]c3n2)c(OC)c1 was tested. Which IC50 (second compound 0.0316 µM) did it give?
The IC50 was 8.14 nM.

What about the IC50 (second compound 0.1 µM) of the same compound?
The IC50 was less than 3.16 nM.

And the IC50 (second compound 0.316 µM)?
The IC50 was less than 3.16 nM.

What about the IC50 (second compound 1 µM) of the same compound?
Its IC50 is less than 3.16 nM.

What about the IC50 (second compound 3.16 µM) of the same compound?
Its IC50 is less than 3.16 nM.

And the IC50 (second compound 10 µM)?
Its IC50 is less than 3.16 nM.

And the viability, T/C (second compound 0.0316 µM, first compound 0.00316 µM)?
Its viability, T/C is 103%.

What about the viability, T/C (second compound 0.0316 µM, first compound 0.01 µM) of the same compound?
The viability, T/C was 37.1%.

And the viability, T/C [1]?
The viability, T/C was 16.6%.

What about the viability, T/C [2] of the same compound?
Its viability, T/C is 5.26%.

What about the viability, T/C [3] of the same compound?
The viability, T/C was 3.13%.

And the viability, T/C [4]?
Its viability, T/C is 1.53%.

What about the viability, T/C (second compound 0.1 µM, first compound 0.00316 µM) of the same compound?
The viability, T/C was 33.4%.

And the viability, T/C (second compound 0.1 µM, first compound 0.01 µM)?
The viability, T/C was 17.9%.

What about the viability, T/C [5] of the same compound?
The viability, T/C was 12.2%.

What about the viability, T/C [6] of the same compound?
Its viability, T/C is 3.99%.

And the viability, T/C [7]?
The viability, T/C was 2.1%.

And the viability, T/C [8]?
The viability, T/C was 1.61%.

And the viability, T/C (second compound 0.316 µM, first compound 0.00316 µM)?
Its viability, T/C is 18.9%.

And the viability, T/C (second compound 0.316 µM, first compound 0.01 µM)?
Its viability, T/C is 15.3%.

And the viability, T/C [9]?
Its viability, T/C is 8.99%.

And the viability, T/C [10]?
Its viability, T/C is 3.91%.

What about the viability, T/C [11] of the same compound?
Its viability, T/C is 1.28%.

And the viability, T/C [12]?
The viability, T/C was 0.35%.

And the viability, T/C (second compound 1 µM, first compound 0.00316 µM)?
The viability, T/C was 14.7%.

What about the viability, T/C (second compound 1 µM, first compound 0.01 µM) of the same compound?
Its viability, T/C is 13.8%.

What about the viability, T/C [13] of the same compound?
The viability, T/C was 4.81%.

And the viability, T/C [14]?
Its viability, T/C is 4.56%.

And the viability, T/C [15]?
Its viability, T/C is 1.55%.

What about the viability, T/C [16] of the same compound?
Its viability, T/C is 0.71%.

And the viability, T/C (second compound 3.16 µM, first compound 0.00316 µM)?
The viability, T/C was 15.7%.

And the viability, T/C (second compound 3.16 µM, first compound 0.01 µM)?
The viability, T/C was 9.15%.

What about the viability, T/C [17] of the same compound?
The viability, T/C was 5.68%.

What about the viability, T/C [18] of the same compound?
The viability, T/C was 2.4%.

What about the viability, T/C [19] of the same compound?
Its viability, T/C is 1%.

What about the viability, T/C [20] of the same compound?
The viability, T/C was 0.27%.

And the viability, T/C (second compound 10 µM, first compound 0.00316 µM)?
The viability, T/C was 17.3%.

And the viability, T/C (second compound 10 µM, first compound 0.01 µM)?
The viability, T/C was 12.9%.

And the viability, T/C [21]?
The viability, T/C was 6.78%.

What about the viability, T/C [22] of the same compound?
Its viability, T/C is 3.12%.

And the viability, T/C [23]?
The viability, T/C was 1.32%.

And the viability, T/C [24]?
The viability, T/C was 2.51%.

Which IC50 (second compound 0.0316 µM) does the source give for CC(=O)O[C@H]1C(=O)[C@@]2(C)[C@H]([C@H](OC(=O)c3ccccc3)[C@]3(O)C[C@H](OC(=O)[C@H](O)[C@@H](NC(=O)c4ccccc4)c4ccccc4)C(C)=C1C3(C)C)[C@]1(OC(C)=O)CO[C@@H]1C[C@@H]2O + CN1CCN(c2cc(C(=O)Nc3cc4cc(-c5cnn(C)c5)ccc4cn3)ccn2)CC1 here?
The IC50 was less than 31.6 nM.

What about the IC50 (second compound 0.1 µM) of the same compound?
The IC50 was less than 31.6 nM.

And the IC50 (second compound 0.316 µM)?
The IC50 was less than 31.6 nM.

What about the IC50 (second compound 1 µM) of the same compound?
The IC50 was less than 31.6 nM.

And the IC50 (second compound 3.16 µM)?
The IC50 was less than 31.6 nM.

And the IC50 (second compound 10 µM)?
The IC50 was less than 31.6 nM.

What about the viability, T/C [1] of the same compound?
The viability, T/C was 33.2%.

What about the viability, T/C [2] of the same compound?
Its viability, T/C is 17.3%.

And the viability, T/C [3]?
Its viability, T/C is 18.3%.

And the viability, T/C [4]?
The viability, T/C was 16.5%.

And the viability, T/C [25]?
The viability, T/C was 21.1%.

What about the viability, T/C [26] of the same compound?
The viability, T/C was 20.4%.

What about the viability, T/C [5] of the same compound?
The viability, T/C was 25.3%.

And the viability, T/C [6]?
The viability, T/C was 23.1%.

What about the viability, T/C [7] of the same compound?
Its viability, T/C is 20.2%.

And the viability, T/C [8]?
Its viability, T/C is 16.3%.

And the viability, T/C [27]?
The viability, T/C was 17%.

What about the viability, T/C [28] of the same compound?
Its viability, T/C is 22.6%.

What about the viability, T/C [9] of the same compound?
Its viability, T/C is 7.34%.

And the viability, T/C [10]?
Its viability, T/C is 11.6%.

What about the viability, T/C [11] of the same compound?
Its viability, T/C is 13.5%.

What about the viability, T/C [12] of the same compound?
Its viability, T/C is 12.6%.

And the viability, T/C [29]?
The viability, T/C was 13.7%.

And the viability, T/C [30]?
Its viability, T/C is 14.9%.

What about the viability, T/C [13] of the same compound?
Its viability, T/C is 1.4%.

And the viability, T/C [14]?
Its viability, T/C is 0.18%.

What about the viability, T/C [15] of the same compound?
Its viability, T/C is 0.18%.

What about the viability, T/C [16] of the same compound?
The viability, T/C was 0.13%.

What about the viability, T/C [31] of the same compound?
The viability, T/C was 0.16%.

What about the viability, T/C [32] of the same compound?
Its viability, T/C is 0.95%.

What about the viability, T/C [17] of the same compound?
Its viability, T/C is 0.15%.

And the viability, T/C [18]?
Its viability, T/C is 0.19%.

And the viability, T/C [19]?
Its viability, T/C is 0.17%.

And the viability, T/C [20]?
The viability, T/C was 1.81%.

What about the viability, T/C [33] of the same compound?
The viability, T/C was 0.95%.

And the viability, T/C [34]?
Its viability, T/C is 3.05%.

And the viability, T/C [21]?
The viability, T/C was 0.18%.

What about the viability, T/C [22] of the same compound?
Its viability, T/C is 0.55%.

And the viability, T/C [23]?
Its viability, T/C is 2.34%.

What about the viability, T/C [24] of the same compound?
Its viability, T/C is 0.22%.

What about the viability, T/C [35] of the same compound?
The viability, T/C was 1.4%.

What about the viability, T/C [36] of the same compound?
Its viability, T/C is 0.16%.

What does the source list for CC(CO)NC(=O)c1cc(-c2ccc(Cl)cc2)nn(-c2cnn(C)c2)c1=O (stereo unspecified) + CNC(=O)c1ccc(Nc2nc(OC3CCCC3)c3c(-c4ccc5nc(C)oc5c4)c[nH]c3n2)c(OC)c1?
IC50 (second compound 0.0316 µM): > 10000 nM; IC50 (second compound 0.1 µM): 131 nM; IC50 (second compound 0.316 µM): < 31.6 nM; IC50 (second compound 1 µM): < 31.6 nM; IC50 (second compound 3.16 µM): < 31.6 nM; IC50 (second compound 10 µM): < 31.6 nM; viability, T/C [1]: 85.2%; viability, T/C [2]: 74.3%; viability, T/C [3]: 79.8%; viability, T/C [4]: 83%; viability, T/C [25]: 97.6%; viability, T/C [26]: 117%; viability, T/C [5]: 50.5%; viability, T/C [6]: 51.3%; viability, T/C [7]: 48.8%; viability, T/C [8]: 47.1%; viability, T/C [27]: 51%; viability, T/C [28]: 45.4%; viability, T/C [9]: 35%; viability, T/C [10]: 26.5%; viability, T/C [11]: 32.5%; viability, T/C [12]: 36.1%; viability, T/C [29]: 37.7%; viability, T/C [30]: 34%; viability, T/C [13]: 22.1%; viability, T/C [14]: 23.6%; viability, T/C [15]: 23.7%; viability, T/C [16]: 21.1%; viability, T/C [31]: 23.5%; viability, T/C [32]: 22.5%; viability, T/C [17]: 17.5%; viability, T/C [18]: 18.2%; viability, T/C [19]: 19.7%; viability, T/C [20]: 18.2%; viability, T/C [33]: 22%; viability, T/C [34]: 19%; viability, T/C [21]: 19.9%; viability, T/C [22]: 18.1%; viability, T/C [23]: 18.4%; viability, T/C [24]: 16.2%; viability, T/C [35]: 18.4%; viability, T/C [36]: 17.7%
